In brackets after ≈: the same amount, converted by molar mass. Activity calls are given as the source filed them. No cut-off for these calls is given here.
Tests used:
Rattus norvegicus = species: Rattus norvegicus; experiment: Inhibition of NADH dehydrogenase and oxidase activity of electron transport protein complex 1 in rat […] assessed as blockade of reduction-oxidation process; type: cell membranes
Nucleic Acid = experiment: Induction of strand scission activity in bacteriophage X174RF1 DNA infected in Escherichia coli; type: nucleic-acid assay; conditions: unidentified phage
Mus musculus = experiment: (§1) Toxicity in ip dosed mouse; type: organism-based; conditions: in vivo
P388 = experiment: Cytotoxicity against mouse P388 cells; type: functional; conditions: read-out: LC50 (the source's name)
HCT-116 = experiment: Cytotoxicity against human HCT116 cells; type: functional; conditions: read-out: LC50 (the source's name)
SW-620 = experiment: Cytotoxicity against human SW620 cells; type: functional; conditions: read-out: LC50 (the source's name)
U-251 = experiment: Cytotoxicity against human U251 cells; type: functional; conditions: read-out: LC50 (the source's name)
PC-3 = experiment: Cytotoxicity against human PC3 cells; type: functional; conditions: read-out: LC50 (the source's name)
MDA-MB-231 = experiment: Cytotoxicity against human MDA-MB-231 cells; type: functional; conditions: read-out: LC50 (the source's name)
A549 = experiment: Cytotoxicity against human A549 cells; type: functional; conditions: read-out: LC50 (the source's name)
OVCAR-4 = experiment: Cytotoxicity against human OVCAR4 cells; type: functional; conditions: read-out: LC50 (the source's name)
SF-268 = experiment: Cytotoxicity against human SF268 cells; type: functional; conditions: read-out: LC50 (the source's name)
MCF7 = experiment: Cytotoxicity against human MCF7 cells; type: functional; conditions: read-out: LC50 (the source's name)
SK-MEL-2 = experiment: Cytotoxicity against human SK-MEL-2 cells; type: functional; conditions: read-out: LC50 (the source's name)
RXF 393 = experiment: Cytotoxicity against human […] cells; type: functional; conditions: read-out: LC50 (the source's name)
KM12 = experiment: Cytotoxicity against human KM12 cells; type: functional; conditions: read-out: LC50 (the source's name)
T47D = experiment: Cytotoxicity against human T47D cells; type: functional; conditions: read-out: LC50 (the source's name)
OVCAR-8 = experiment: Cytotoxicity against human OVCAR8 cells; type: functional; conditions: read-out: LC50 (the source's name)
SK-OV-3 = experiment: Cytotoxicity against human SKOV3 cells; type: functional; conditions: read-out: LC50 (the source's name)
HOP-92 = experiment: Cytotoxicity against human HOP92 cells; type: functional; conditions: read-out: LC50 (the source's name)
MOLT-4 = experiment: Cytotoxicity against human MOLT4 cells; type: functional; conditions: read-out: LC50 (the source's name)
SK-MEL-5 = experiment: Cytotoxicity against human SK-MEL-5 cells; type: functional; conditions: read-out: LC50 (the source's name)
HCT-15 = experiment: Cytotoxicity against human HCT15 cells; type: functional; conditions: read-out: LC50 (the source's name)
SF-295 = experiment: Cytotoxicity against human SF295 cells; type: functional; conditions: read-out: LC50 (the source's name)
Malme-3M = experiment: Cytotoxicity against human MALME-3M cells; type: functional; conditions: read-out: LC50 (the source's name)
NCI-H322M = experiment: Cytotoxicity against human NCI-H322M cells; type: functional; conditions: read-out: LC50 (the source's name)
UACC-257 = experiment: Cytotoxicity against human UACC257 cells; type: functional; conditions: read-out: LC50 (the source's name)
M14 = experiment: Cytotoxicity against human M14 cells; type: functional; conditions: read-out: LC50 (the source's name)
CCRF-CEM = experiment: Cytotoxicity against human CCRF-CEM cells; type: functional; conditions: read-out: LC50 (the source's name)
IGROV-1 = experiment: Cytotoxicity against human IGROV1 cells; type: functional; conditions: read-out: LC50 (the source's name)
UO-31 = experiment: Cytotoxicity against human UO31 cells; type: functional; conditions: read-out: LC50 (the source's name)
HT-29 = experiment: Cytotoxicity against human HT-29 cells; type: functional; conditions: read-out: LC50 (the source's name)
[1] = as §1; type: organism-based; conditions: in vivo
SF-539 = experiment: Cytotoxicity against human SF539 cells; type: functional; conditions: read-out: LC50 (the source's name)
MDA-MB-435 = experiment: Cytotoxicity against human MDA-MB-435 cells; type: functional; conditions: read-out: LC50 (the source's name)
DU-145 = experiment: Cytotoxicity against human DU145 cells; type: functional; conditions: read-out: LC50 (the source's name)
A498 = experiment: Cytotoxicity against human A498 cells; type: functional; conditions: read-out: LC50 (the source's name)
HCC 2998 = experiment: Cytotoxicity against human HCC2998 cells; type: functional; conditions: read-out: LC50 (the source's name)
SR = experiment: Cytotoxicity against human SR cells; type: functional; conditions: read-out: LC50 (the source's name)
[2] = Cytotoxicity against human Hs 578T cells; type: functional; conditions: read-out: LC50 (the source's name)
NCI-H522 = experiment: Cytotoxicity against human NCI-H522 cells; type: functional; conditions: read-out: LC50 (the source's name)
UACC-62 = experiment: Cytotoxicity against human UACC62 cells; type: functional; conditions: read-out: LC50 (the source's name)
[3] = Cytotoxicity against human MCF7/ADR cells; type: functional; conditions: NCI/ADR-RES, read-out: LC50 (the source's name)
OVCAR-3 = experiment: Cytotoxicity against human OVCAR-3 cells; type: functional; conditions: read-out: LC50 (the source's name)
NCI-H460 = experiment: Cytotoxicity against human NCI-H460 cells; type: functional; conditions: read-out: LC50 (the source's name)
[4] = Toxicity in Artemia salina; type: organism-based; conditions: in vivo
HL-60(TB) = experiment: Cytotoxicity against human HL-60(TB) cells; type: functional; conditions: read-out: LC50 (the source's name)
CAKI-1 = experiment: Cytotoxicity against human Caki1 cells; type: functional; conditions: read-out: LC50 (the source's name)
LOX IMVI = experiment: Cytotoxicity against human LOXIMVI cells; type: functional; conditions: read-out: LC50 (the source's name)
K562 = experiment: Cytotoxicity against human K562 cells; type: functional; conditions: read-out: LC50 (the source's name)
EKVX = experiment: Cytotoxicity against human EKVX cells; type: functional; conditions: read-out: LC50 (the source's name)
TK-10 = experiment: Cytotoxicity against human TK10 cells; type: functional; conditions: read-out: LC50 (the source's name)
NCI-H226 = experiment: Cytotoxicity against human NCI-H226 cells; type: functional; conditions: read-out: LC50 (the source's name)
OVCAR-5 = experiment: Cytotoxicity against human OVCAR5 cells; type: functional; conditions: read-out: LC50 (the source's name)
MDA-N = experiment: Cytotoxicity against human MDA-N cells; type: functional; conditions: read-out: LC50 (the source's name)
BT-549 = experiment: Cytotoxicity against human BT549 cells; type: functional; conditions: read-out: LC50 (the source's name)
SK-MEL-28 = experiment: Cytotoxicity against human SK-MEL-28 cells; type: functional; conditions: read-out: LC50 (the source's name)
HOP-62 = experiment: Cytotoxicity against human HOP62 cells; type: functional; conditions: read-out: LC50 (the source's name)
COLO 205 = experiment: Cytotoxicity against human COLO205 cells; type: functional; conditions: read-out: LC50 (the source's name)
NCI-H23 = experiment: Cytotoxicity against human NCI-H23 cells; type: functional; conditions: read-out: LC50 (the source's name)
ACHN = experiment: Cytotoxicity against human ACHN cells; type: functional; conditions: read-out: LC50 (the source's name)
786-0 = experiment: Cytotoxicity against human 786-0 cells; type: functional; conditions: read-out: LC50 (the source's name)
[5] = Cytotoxicity against human […] cells; type: functional; conditions: read-out: LC50 (the source's name)
SNB-19 = experiment: Cytotoxicity against human SNB19 cells; type: functional; conditions: read-out: LC50 (the source's name)

CC1=C/[C@H](C)C[C@@]2(C)CC[C@@H](O2)[C@@]23CC[C@@](C)(C[C@@H](O2)[C@H]2O[C@](C)(CC2=O)[C@@H](O)[C@@H]2CC[C@@]4(CCC[C@H](O4)[C@@H](C)C(=O)O[C@@H]4C[C@@H]([C@@]5(O)OCC[C@@H](C)[C@H]5O)O[C@@H]4\C=C\1)O2)O3
Activity (Rattus norvegicus): inactive | Activity (Nucleic Acid): inactive

COc1cccc2c1C(=O)c1c(O)c3c(c(O)c1C2=O)C[C@@](O)(C(=O)CO)C[C@@H]3O[C@H]1C[C@H](N)[C@H](O)[C@H](C)O1 [DOXORUBICIN]
LD50 (Mus musculus): 13 µg/mL

O=c1[nH]cc(F)c(=O)[nH]1 [FLUOROURACIL]
CC50 (P388): 0.2 µg/mL (≈ 1.54 µM)

CC1=C\[C@H](C)C[C@@]2(C)CC[C@@H](O2)[C@@]23CC[C@@](C)(C[C@@H](O2)[C@H]2O[C@](C)(CC2=O)[C@@H](O)[C@@H]2CC[C@@]4(CCC[C@H](O4)[C@@H](C)C(=O)O[C@@H]4C[C@@H]([C@@]5(O)OCC[C@@H](C)[C@H]5O)O[C@@H]4\C=C\1)O2)O3 [PECTENOTOXIN II]
CC50 (HCT-116): 0.0733 µM | CC50 (SW-620): > 10 µM | CC50 (U-251): > 10 µM | CC50 (PC-3): > 10 µM | CC50 (MDA-MB-231): > 10 µM | CC50 (A549): > 10 µM | CC50 (OVCAR-4): > 10 µM | CC50 (SF-268): 0.154 µM | CC50 (MCF7): > 10 µM | CC50 (SK-MEL-2): > 10 µM | CC50 (RXF 393): 0.03 µM | CC50 (KM12): > 10 µM | CC50 (T47D): > 10 µM | CC50 (OVCAR-8): > 10 µM | CC50 (SK-OV-3): > 10 µM | CC50 (HOP-92): 0.807 µM | CC50 (MOLT-4): > 10 µM | CC50 (SK-MEL-5): 0.0552 µM | CC50 (HCT-15): > 10 µM | CC50 (SF-295): 0.0777 µM | CC50 (Malme-3M): 0.123 µM | CC50 (NCI-H322M): > 10 µM | CC50 (UACC-257): > 10 µM | CC50 (M14): 4.73 µM | CC50 (CCRF-CEM): > 10 µM | CC50 (IGROV-1): 0.0673 µM | CC50 (UO-31): 0.0563 µM | CC50 (HT-29): > 10 µM | LD50 [1]: 0.26 mg/kg | CC50 (SF-539): > 10 µM | CC50 (MDA-MB-435): > 10 µM | CC50 (DU-145): > 10 µM | CC50 (A498): 0.0341 µM | CC50 (HCC 2998): > 10 µM | CC50 (SR): > 10 µM | CC50 [2]: 0.0779 µM | CC50 (NCI-H522): > 10 µM | CC50 (UACC-62): > 10 µM | CC50 [3]: > 10 µM | CC50 (OVCAR-3): 0.0616 µM | CC50 (NCI-H460): > 10 µM | LC50 [4]: < 0.1 µg/mL | CC50 (HL-60(TB)): > 10 µM | CC50 (CAKI-1): 0.0191 µM | CC50 (LOX IMVI): > 10 µM | CC50 (K562): > 10 µM | CC50 (EKVX): 0.062 µM | CC50 (TK-10): 0.0725 µM | CC50 (NCI-H226): > 10 µM | CC50 (OVCAR-5): > 10 µM | CC50 (MDA-N): > 10 µM | CC50 (BT-549): 0.0627 µM | CC50 (SK-MEL-28): 0.0423 µM | CC50 (HOP-62): 0.0251 µM | CC50 (COLO 205): 0.00782 µM | CC50 (NCI-H23): > 10 µM | CC50 (ACHN): > 10 µM | CC50 (786-0): > 10 µM | CC50 [5]: > 10 µM | CC50 (SNB-19): > 10 µM

O=C(NCCSSCCNC(=O)/C(Cc1ccc(O)c(Br)c1)=N/O)/C(Cc1ccc(O)c(Br)c1)=N/O [PSAMMAPLIN A]
CC50 (A549): 6.43 µg/mL | CC50 (P388): 0.64 µg/mL (≈ 0.963 µM) | LC50 [4]: 4 µg/mL (≈ 6.02 µM)

— ChEMBL document CHEMBL1150091, “Cytotoxic compounds from a two-sponge association” (J Nat Prod, 1995)
